Where two headings read alike, the source gives them in different places.
Assays:
PC3 = assay: Sulforhodamine B (SRB) growth inhibition assay; format: cell-based; conditions: Homo sapiens, PC-3; PC3, ± SE
Experimental: Cells were inoculated into 96-well plates in growth medium. After 24 h, cells were fixed with 10% trichloroacetic acid (TCA), to represent a measurement of the cell population at the time of drug addition (Tz). After incubation with vehicle (0.1% DMSO) or different concentrations of compound for 48 h (Tt), cells were fixed with 10% TCA and stained with 0.4% SRB. After staining, unbound SRB was removed by 1% acetic acid. […] Percentage of growth inhibition was calculated as: 100−[(Tt-Tz)/(C-Tz)] ×100. Tt represents absorbance of compound-treated group, and C means absorbance of vehicle-treated group.

HDAC9 = HDAC9 (Homo sapiens, UniProt Q9UKV0); assay: Fluorometric HDAC activity assay, recombinant isoform
Experimental: (§2) Two different types of in vitro HDAC activity assays were used (with or without cells). Test compounds were incubated with individual recombinant HDAC isoforms (HDAC 1-9) and the assay was performed according to the manufacturer's protocol (BPS Biosciences, USA).

HDAC6 = biological target: T1, HDAC6 (Homo sapiens, UniProt Q9UBN7); assay: as above
T1 sequence (Q9UBN7 1-1215): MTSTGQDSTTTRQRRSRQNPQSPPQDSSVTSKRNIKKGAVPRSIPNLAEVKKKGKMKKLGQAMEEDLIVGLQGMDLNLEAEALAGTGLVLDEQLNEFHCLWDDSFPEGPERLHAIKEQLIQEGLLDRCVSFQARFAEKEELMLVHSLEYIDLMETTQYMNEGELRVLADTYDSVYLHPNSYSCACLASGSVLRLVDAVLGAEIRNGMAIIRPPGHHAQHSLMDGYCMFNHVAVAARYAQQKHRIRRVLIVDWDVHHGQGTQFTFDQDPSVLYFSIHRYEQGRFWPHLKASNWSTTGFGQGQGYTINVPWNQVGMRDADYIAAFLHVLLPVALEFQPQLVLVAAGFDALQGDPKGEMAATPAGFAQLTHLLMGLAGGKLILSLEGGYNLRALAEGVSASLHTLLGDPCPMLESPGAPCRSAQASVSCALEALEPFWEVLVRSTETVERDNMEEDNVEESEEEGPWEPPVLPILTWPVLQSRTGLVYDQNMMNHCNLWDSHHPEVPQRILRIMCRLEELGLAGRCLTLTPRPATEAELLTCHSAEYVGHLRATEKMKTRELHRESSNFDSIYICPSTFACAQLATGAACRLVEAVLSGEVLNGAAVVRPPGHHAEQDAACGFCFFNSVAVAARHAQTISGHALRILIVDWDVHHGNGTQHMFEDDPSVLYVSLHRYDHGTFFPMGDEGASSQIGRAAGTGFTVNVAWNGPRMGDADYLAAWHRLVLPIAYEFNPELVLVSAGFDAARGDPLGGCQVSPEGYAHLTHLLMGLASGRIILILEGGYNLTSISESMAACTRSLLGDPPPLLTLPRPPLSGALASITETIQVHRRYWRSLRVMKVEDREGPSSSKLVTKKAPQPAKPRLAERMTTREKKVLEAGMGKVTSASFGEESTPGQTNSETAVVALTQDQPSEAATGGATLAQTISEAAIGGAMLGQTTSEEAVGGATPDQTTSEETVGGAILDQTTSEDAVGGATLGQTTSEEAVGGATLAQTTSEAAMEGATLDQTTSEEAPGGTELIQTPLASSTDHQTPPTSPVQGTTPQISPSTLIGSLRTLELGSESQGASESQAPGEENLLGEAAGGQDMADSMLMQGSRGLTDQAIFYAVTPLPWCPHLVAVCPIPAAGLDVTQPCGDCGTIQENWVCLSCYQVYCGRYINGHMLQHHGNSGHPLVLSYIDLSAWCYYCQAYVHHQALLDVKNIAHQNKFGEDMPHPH
Experimental: as §2

HT-29 cells [1] = assay: MTT cell viability assay; format: cell-based; conditions: Homo sapiens, 24 h, read-out: IC50 (cell death, MTT)
Experimental: Cells were seeded in 96-well plates in growth medium overnight. Cells were treated with vehicle (0.1% DMSO) or different concentrations of compound for 24 h, then incubated with MTT reagent at 37°C for 1 h. After incubation, the insoluble formazan produced in living cells. The formazan crystals were dissolved with DMSO and the absorbance was measured at 550 nm.

HT-29 tumor xenograft = HT-29 tumor xenograft model; format: in vivo, athymic nude mice; conditions: 100 or 200 mg/kg qd by gavage, 18 days
Experimental: Tumor volumes were calculated using caliper measurements twice per week using the formula volume (mm^3) = (length × width^2)/2. Body weights were measured daily during the first week and twice per week thereafter. […] The protocols of the in vivo study were approved by the Animal Care and User Committee at National Taiwan University.

HCT116 = assay: Sulforhodamine B (SRB) growth inhibition assay; format: cell-based, human; conditions: HCT116, ± SE
Experimental: (§1) Cells were inoculated into 96-well plates in growth medium. After 24 h, cells were fixed with 10% trichloroacetic acid (TCA), to represent a measurement of the cell population at the time of drug addition (Tz). After incubation with vehicle (0.1% DMSO) or different concentrations of compound for 48 h (Tt), cells were fixed with 10% TCA and stained with 0.4% SRB. After staining, unbound SRB was removed by 1% acetic acid. Bound SRB was solubilized with 10 mM trizma base and the absorbance was measured at 515 nm. Percentage of growth inhibition was calculated as: 100−[(Tt-Tz)/(C-Tz)] ×100. Tt represents absorbance of compound-treated group, and C means absorbance of vehicle-treated group.

HT-29 cells [2] = assay: Sulforhodamine B (SRB) growth inhibition assay; format: cell-based, human
Experimental: as §1

Hep3B = assay: Sulforhodamine B (SRB) growth inhibition assay; format: cell-based, human; conditions: ± SE
Experimental: as §1

A549 = assay: Sulforhodamine B (SRB) growth inhibition assay; format: cell-based, human; conditions: A549, ± SE
Experimental: as §1

[3] = tested on: total HDACs in HT-29 cells; assay: Fluorometric HDAC activity assay, total HDACs in cell lysates; conditions: read-out: IC50 inhibition of total HDACs, HT-29 cells treated 24 h
Experimental: as §2

HDAC2 = HDAC2 (Homo sapiens, UniProt Q92769); assay: Fluorometric HDAC activity assay, recombinant isoform
Experimental: as §2

HDAC4 = HDAC4 (Homo sapiens, UniProt P56524); assay: as above
Experimental: as §2

HDAC7 = biological target: T2, HDAC7 (Homo sapiens, UniProt Q8WUI4); assay: as above
T2 sequence (Q8WUI4 1-952): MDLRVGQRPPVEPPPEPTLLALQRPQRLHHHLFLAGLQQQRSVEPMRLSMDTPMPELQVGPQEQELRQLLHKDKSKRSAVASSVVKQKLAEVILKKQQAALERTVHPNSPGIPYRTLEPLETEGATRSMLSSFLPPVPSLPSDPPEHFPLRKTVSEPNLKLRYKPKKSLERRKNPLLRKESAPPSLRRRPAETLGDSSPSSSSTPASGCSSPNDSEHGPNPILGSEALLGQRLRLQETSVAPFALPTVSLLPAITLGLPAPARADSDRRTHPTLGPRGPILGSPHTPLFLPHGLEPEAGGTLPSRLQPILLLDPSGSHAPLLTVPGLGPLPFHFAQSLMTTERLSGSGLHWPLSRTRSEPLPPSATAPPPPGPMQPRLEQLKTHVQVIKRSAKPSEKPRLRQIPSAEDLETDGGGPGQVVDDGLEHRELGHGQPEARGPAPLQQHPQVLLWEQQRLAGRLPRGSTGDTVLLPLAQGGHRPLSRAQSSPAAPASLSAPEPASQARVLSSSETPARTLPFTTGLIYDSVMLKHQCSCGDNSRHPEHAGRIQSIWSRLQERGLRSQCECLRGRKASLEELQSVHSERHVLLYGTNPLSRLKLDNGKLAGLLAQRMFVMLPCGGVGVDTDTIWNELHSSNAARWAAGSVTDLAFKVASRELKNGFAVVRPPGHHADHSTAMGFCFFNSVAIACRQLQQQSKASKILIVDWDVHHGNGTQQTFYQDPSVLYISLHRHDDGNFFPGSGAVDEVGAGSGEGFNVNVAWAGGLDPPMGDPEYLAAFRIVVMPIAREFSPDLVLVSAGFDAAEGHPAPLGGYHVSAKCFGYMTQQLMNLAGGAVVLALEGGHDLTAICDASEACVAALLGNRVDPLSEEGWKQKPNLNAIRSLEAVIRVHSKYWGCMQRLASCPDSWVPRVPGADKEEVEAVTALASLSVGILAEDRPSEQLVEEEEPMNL
Experimental: as §2

HDAC5 = HDAC5 (Homo sapiens, UniProt Q9UQL6); assay: as above
Experimental: as §2

HDAC1 = HDAC1 (Homo sapiens, UniProt Q13547); assay: as above
Experimental: as §2

HT-29 cells [4] = assay: Cell death detection ELISA (DNA fragmentation); format: cell-based, human; conditions: 24 h, compared with SAHA
Experimental: Cell Death Detection ELISA Kit (Roche Diagnostics, Switzerland) was used to analyze drug-induced apoptosis. […] Adherent cells were collected and the assay was performed according to the manufacturer's protocol.

HUVEC cells = assay: MTT cell viability assay in normal cells; format: cell-based, human; conditions: 24 h
Experimental: Then, cell viability was measured by the mitochondrial MTT reduction activity assay.

HDAC8 = biological target: T3, HDAC8 (Homo sapiens, UniProt Q9BY41); assay: Fluorometric HDAC activity assay, recombinant isoform
T3 sequence (Q9BY41 1-377): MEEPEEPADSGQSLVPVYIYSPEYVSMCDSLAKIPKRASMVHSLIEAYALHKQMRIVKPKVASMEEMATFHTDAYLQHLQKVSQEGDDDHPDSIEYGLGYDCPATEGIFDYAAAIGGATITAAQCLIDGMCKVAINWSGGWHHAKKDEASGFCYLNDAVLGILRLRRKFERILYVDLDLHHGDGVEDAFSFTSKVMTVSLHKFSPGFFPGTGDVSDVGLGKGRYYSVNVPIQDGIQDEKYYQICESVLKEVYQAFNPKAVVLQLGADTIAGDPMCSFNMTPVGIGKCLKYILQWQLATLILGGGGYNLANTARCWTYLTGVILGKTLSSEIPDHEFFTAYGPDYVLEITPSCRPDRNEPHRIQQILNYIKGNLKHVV
Experimental: as §2

HT-29 cells [5] = tested on: HT-29 cells; design: method as in PMID 10200307; conditions: cited from earlier work

HDAC2, sequence (Q92769 whole entry, canonical isoform): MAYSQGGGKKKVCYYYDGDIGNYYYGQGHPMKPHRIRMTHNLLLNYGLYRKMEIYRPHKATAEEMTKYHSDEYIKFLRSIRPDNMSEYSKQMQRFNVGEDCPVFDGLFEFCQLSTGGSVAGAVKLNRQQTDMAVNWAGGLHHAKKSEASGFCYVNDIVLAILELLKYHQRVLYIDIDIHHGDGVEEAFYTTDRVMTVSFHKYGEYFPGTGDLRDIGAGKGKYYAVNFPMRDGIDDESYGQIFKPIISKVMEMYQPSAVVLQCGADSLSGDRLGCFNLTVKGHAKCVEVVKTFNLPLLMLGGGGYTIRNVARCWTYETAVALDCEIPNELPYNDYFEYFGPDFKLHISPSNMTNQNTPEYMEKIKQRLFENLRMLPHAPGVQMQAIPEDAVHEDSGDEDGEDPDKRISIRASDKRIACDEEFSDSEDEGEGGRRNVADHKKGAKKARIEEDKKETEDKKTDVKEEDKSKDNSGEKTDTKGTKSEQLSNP
HDAC1, sequence (Q13547 whole entry, the tested form may be a part): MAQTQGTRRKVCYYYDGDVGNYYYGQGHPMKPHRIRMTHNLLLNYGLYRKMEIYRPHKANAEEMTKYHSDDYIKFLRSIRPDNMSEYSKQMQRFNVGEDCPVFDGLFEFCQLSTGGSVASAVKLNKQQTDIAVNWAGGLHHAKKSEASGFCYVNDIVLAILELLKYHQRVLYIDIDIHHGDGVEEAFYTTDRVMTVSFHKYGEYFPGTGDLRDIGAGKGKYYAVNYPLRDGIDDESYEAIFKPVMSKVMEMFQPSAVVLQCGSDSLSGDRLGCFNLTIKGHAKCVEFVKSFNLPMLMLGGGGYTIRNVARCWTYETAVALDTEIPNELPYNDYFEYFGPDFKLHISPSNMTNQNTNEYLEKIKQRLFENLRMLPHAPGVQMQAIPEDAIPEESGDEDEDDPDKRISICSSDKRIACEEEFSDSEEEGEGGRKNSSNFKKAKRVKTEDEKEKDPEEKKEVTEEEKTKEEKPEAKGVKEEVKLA
HDAC9, sequence (Q9UKV0 whole entry, canonical isoform): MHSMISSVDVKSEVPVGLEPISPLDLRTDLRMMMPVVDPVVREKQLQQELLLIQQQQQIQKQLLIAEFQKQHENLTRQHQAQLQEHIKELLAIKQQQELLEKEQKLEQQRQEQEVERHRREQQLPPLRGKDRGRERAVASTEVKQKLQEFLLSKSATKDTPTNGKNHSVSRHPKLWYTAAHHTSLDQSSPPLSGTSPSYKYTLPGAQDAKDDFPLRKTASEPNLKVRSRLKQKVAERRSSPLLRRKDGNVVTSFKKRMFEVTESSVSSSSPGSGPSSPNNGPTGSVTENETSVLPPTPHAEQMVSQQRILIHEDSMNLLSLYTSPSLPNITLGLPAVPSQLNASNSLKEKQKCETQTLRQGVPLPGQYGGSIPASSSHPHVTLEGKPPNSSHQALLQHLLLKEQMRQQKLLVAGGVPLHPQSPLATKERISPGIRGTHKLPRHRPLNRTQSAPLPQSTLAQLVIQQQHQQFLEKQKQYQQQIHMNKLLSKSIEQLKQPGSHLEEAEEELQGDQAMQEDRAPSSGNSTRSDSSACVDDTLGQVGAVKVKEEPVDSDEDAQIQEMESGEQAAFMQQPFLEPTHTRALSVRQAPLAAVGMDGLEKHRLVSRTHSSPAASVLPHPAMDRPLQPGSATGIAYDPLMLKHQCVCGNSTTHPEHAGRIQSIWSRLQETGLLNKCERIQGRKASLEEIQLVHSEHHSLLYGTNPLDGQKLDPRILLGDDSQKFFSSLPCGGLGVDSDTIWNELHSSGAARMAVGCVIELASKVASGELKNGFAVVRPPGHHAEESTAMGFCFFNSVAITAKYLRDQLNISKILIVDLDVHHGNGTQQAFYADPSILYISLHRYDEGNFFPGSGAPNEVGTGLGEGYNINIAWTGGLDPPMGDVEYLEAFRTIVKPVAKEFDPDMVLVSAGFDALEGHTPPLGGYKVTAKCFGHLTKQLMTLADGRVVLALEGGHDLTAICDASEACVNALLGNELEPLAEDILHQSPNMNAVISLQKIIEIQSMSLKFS
HDAC5, sequence (Q9UQL6 whole entry): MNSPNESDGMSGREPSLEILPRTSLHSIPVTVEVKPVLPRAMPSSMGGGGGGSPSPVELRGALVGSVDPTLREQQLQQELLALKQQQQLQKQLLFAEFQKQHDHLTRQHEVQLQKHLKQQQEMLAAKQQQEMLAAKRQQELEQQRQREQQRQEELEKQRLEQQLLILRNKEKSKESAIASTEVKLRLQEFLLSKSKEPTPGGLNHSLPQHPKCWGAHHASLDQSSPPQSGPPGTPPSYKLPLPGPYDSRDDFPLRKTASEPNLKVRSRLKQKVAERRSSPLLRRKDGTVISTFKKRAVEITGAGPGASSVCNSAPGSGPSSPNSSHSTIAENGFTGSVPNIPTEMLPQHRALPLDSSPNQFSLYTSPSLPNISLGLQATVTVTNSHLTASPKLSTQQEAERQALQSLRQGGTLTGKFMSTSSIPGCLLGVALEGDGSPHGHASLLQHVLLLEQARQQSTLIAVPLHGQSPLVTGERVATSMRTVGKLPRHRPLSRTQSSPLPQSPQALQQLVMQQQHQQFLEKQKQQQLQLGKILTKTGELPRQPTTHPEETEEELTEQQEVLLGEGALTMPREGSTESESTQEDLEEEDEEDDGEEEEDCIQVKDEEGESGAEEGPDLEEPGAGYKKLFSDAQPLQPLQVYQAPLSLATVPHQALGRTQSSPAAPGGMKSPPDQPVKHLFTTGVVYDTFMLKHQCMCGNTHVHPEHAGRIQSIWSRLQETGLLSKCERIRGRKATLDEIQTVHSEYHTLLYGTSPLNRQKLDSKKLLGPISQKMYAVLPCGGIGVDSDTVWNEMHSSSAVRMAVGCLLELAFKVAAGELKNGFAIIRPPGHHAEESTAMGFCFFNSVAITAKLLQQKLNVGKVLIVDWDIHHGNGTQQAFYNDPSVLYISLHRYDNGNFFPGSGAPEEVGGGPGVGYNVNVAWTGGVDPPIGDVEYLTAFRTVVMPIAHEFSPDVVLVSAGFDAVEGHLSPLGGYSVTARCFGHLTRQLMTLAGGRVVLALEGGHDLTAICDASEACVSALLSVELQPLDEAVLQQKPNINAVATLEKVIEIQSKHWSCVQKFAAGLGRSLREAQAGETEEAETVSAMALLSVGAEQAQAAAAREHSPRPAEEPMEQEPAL
HDAC4, sequence (P56524 whole entry): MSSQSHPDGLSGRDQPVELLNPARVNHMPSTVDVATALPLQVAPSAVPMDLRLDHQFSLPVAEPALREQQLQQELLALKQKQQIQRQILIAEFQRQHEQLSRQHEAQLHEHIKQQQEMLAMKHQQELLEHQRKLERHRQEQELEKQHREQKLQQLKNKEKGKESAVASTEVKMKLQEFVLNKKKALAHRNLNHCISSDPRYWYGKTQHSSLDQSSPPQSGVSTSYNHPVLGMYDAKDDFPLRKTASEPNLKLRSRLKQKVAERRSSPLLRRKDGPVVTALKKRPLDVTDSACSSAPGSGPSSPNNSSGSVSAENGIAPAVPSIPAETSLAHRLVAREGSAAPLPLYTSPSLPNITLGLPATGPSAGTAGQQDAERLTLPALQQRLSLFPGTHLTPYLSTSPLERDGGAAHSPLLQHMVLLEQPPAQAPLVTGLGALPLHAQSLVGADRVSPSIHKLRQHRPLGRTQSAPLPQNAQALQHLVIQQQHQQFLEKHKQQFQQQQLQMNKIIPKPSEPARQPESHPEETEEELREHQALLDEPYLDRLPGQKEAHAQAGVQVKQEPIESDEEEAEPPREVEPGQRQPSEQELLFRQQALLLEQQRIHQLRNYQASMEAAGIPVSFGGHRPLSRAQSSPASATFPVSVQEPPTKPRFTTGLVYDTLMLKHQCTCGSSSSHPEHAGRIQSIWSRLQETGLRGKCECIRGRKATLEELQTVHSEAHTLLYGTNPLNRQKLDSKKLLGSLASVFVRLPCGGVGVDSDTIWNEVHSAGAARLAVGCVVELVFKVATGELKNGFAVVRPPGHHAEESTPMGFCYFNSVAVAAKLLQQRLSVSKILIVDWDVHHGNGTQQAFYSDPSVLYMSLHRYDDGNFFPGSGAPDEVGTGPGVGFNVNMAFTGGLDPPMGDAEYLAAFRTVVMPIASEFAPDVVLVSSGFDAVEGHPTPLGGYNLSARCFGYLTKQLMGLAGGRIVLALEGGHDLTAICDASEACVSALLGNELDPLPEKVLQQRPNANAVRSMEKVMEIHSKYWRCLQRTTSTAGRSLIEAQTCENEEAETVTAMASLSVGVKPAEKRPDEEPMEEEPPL

COc1ccc(S(=O)(=O)N2CCc3cc(C=CC(=O)NO)cc(N)c32)cc1 [MPT0G030, 3-[7-amino-1-(4-methoxy-benzenesulfonyl)-2,3-dihydro-1H-indol-5-yl]-N-hydroxy-acrylamide]
GI50 (PC3): 170 ± 10 nM
IC50 (HDAC9): > 10000 nM
Ratio: fold x IC50 relative to HDAC1 isoform (HDAC9; HDAC9): >130
IC50 (HDAC6): 4368 ± 42.1 nM
HDAC6 IC50 of MPT0G030 as fold x IC50 of SAHA (HDAC6; HDAC6): > 55 fold
Ratio: fold x IC50 relative to HDAC1 isoform (HDAC6; HDAC6): 58.19
IC50 (HT-29 cells [1]): 985 ± 60 nM
Body weight (HT-29 tumor xenograft): not affected
GI50 (HCT116; Homo sapiens, HCT-116): 110 ± 20 nM
GI50 (HT-29 cells [2]; Homo sapiens, HT-29, 48 h): 145 ± 10 nM
GI50 (Hep3B; Homo sapiens): 140 ± 10 nM
GI50 (A549; Homo sapiens): 180 ± 10 nM
IC50 [3]: 6450 ± 1390 nM
IC50 (HDAC2): 242 ± 47.6 nM
Ratio: fold x IC50 relative to HDAC1 isoform (HDAC2; HDAC2): 3.22
IC50 (HDAC4): > 10000 nM
IC50 (HDAC7): > 10000 nM
Ratio: fold x IC50 relative to HDAC1 isoform (HDAC7; HDAC7): >130
IC50 (HDAC5): > 5000 nM
Ratio: fold x IC50 relative to HDAC1 isoform (HDAC5; HDAC5): >60
IC50 (HDAC1): 75.1 ± 4.65 nM
Ratio: fold x IC50 relative to HDAC1 isoform (HDAC1; HDAC1): 1
Induction of cell apoptosis (cytoplasmic histone-associated DNA fragments) (HT-29 cells [4]): more effective on inducing cell apoptosis
IC50 in normal (HUVEC) cells relative to IC50 in HT-29 cells (HUVEC cells): about thirty times higher
IC50 (HDAC8): 3340 ± 130 nM
Ratio: fold x IC50 relative to HDAC1 isoform (HDAC8; HDAC8): 44.55

O=C(CCCCCCC(=O)Nc1ccccc1)NO [SAHA, suberanilohydroxamic acid, reference compound]
GI50 (HCT116): 440 ± 30 nM
GI50 (HT-29 cells [2]; 48 h): 920 ± 50 nM
GI50 (Hep3B): 950 ± 40 nM
GI50 (A549): 2620 ± 1370 nM
IC50 [3]: 29600 ± 2620 nM

Nc1ccccc1NC(=O)c1ccc(CNC(=O)OCc2cccnc2)cc1 [entinostat]
GI50 (HT-29 cells [5]): 1290 nM

From article PMC4170623, “A novel class I HDAC inhibitor, MPT0G030, induces cell apoptosis and differentiation in human colorectal cancer cells via HDAC1/PKCδ and E-cadherin” (Oncotarget, 2014)
